Source: patent US10472341B2, “Bicyclic tetrahydrothiazepine derivatives useful for the treatment of neoplastic and/or infectious diseases” (APEIRON BIOLOGICS AG, priority 2015, dated 2019)

Key:
[1] = test system: CD4 T cells; test: TCR-mediated activation of isolated CFSE-labeled CD4 T cells (anti-CD3/anti-CD28): cytokines, proliferation, CD25; assay type: cell-based, human; conditions: for CD25 expression [% positive cells] Average / Cell Proliferation [Cell divisions/cell] Average / IFN-gamma production [ng/ml] Average / IL-2 production [ng/ml] Average / TNF-alpha production [ng/ml] Average: anti-CD3/anti-CD28
Protocol: • Buffy coat content was transferred to sterile plastic bottle and filled up to 480 ml with PBS, and distributed equally to 16×50 ml tubes (30 ml/tube) • Underlayed with ˜11 ml Lymphoprep and centrifuged 20 min (2200 rpm) • The interphase containing lymphocytes was taken off with transfer pipette, cells were washed twice with PBS and pooled to one tube to determine cell count (Coulter Diff ACT) Isolation of Immune Cell Subfractions from PBMCs by MACS • PBMCs were resuspended in MACS buffer (80 μl MACS-buffer/10^7 cells) and cells were isolated with Auto-MACS device using respective kits following manufacturer's recommendations TCR Stimulation and Measurement of T Cell Activation
Isolated T cells were plated in Xvivo medium at 1.5*10 ^5 cells per in 96 well culture plates and TCR-stimulated with anti-CD3/28 mAbs in the presence of compound as indicated. Cytokine production was determined at 24 h or 48 h following TCR stimulation in cell culture supernatants using commercially available ELISA kits (BD and eBioscience) as recommended by the manufacturer. T cell proliferation and CD25 expression (CD25-PC5 reagent purchased from Beckman Coulter) was determined by flow cytometry (Beckman-Coulter FC500) and analysed with Kaluza Software. For measurement of CD69 expression, isolated CD4 and CD8 T cells were plated in Xvivo medium at […] per in 96 well culture plates and TCR-stimulated with anti-CD3/28 mAbs in the presence of compound. CD69 expression was determined at 24 h following TCR stimulation by flow cytometry (CD4eF450, CD8APCeF780 and CD69-PC7 reagent purchased from eBioscience) and analysed with Kaluza Software.
Isolated CD4 T cells were CFSE-labeled and stimulated with anti-CD3 and anti-CD28 antibodies.

[2] = test system: CD8-positive immune cells & M21 melanoma cells; test: CD8-positive immune cells alone or in co-culture with M21 melanoma cells: IFN-gamma, IL-2, granzyme; assay type: cell-based, human
Protocol: Isolated PBMCs, NK cells or CD8 positive cells were plated in Xvivo medium at 1.5*10^5 cells per in 96 well culture plates in the presence of 0.3*10^4 tumor cells where indicated. Cytokine secretion was determined by ELISA, immune cell activation (using Beckman-Coulter Abs CD25-PC5, CD69-PC7), cell viability and numbers by flow cytometry (Beckman-Coulter FC500 or Gallios) using 7-AAD exclusion as criterion for living cells. CD8-positive immune cells were isolated from PBMCs and were incubated with and without compound example 67, either alone or in co-culture with M21 melanoma cells.

[3] = 0.03 μM, CD8 only (no tumor cells)
[4] = 0.10 μM, CD8 only (no tumor cells)
[5] = 0.30 μM, CD8 only (no tumor cells)
[6] = 1 μM, CD8 only (no tumor cells)
[7] = 3 μM, CD8 only (no tumor cells)
[8] = 10 μM, CD8 only (no tumor cells)

CCCCNC(=O)c1ccc2c(c1)N(Cc1ccc(OC(F)(F)F)cc1)C(=O)[C@@H](N)CS2(=O)=O.Cl [Example 67, (3R)-3-amino-N-butyl-1,1,4-trioxo-5-{[4-(trifluoromethoxy)phenyl]methyl}-2,3,4,5-tetrahydro-1λ^6,5-benzothiazepine-7-carboxamide hydrochloride]
CD25 expression [% positive cells] Average ([1]; 0.05 μM): 47.88 % positive cells | Cell Proliferation [Cell divisions/cell] Average ([1]; 0.05 μM): 0.49 Cell divisions/cell | IFN-gamma production [ng/ml] Average ([1]; 0.05 μM): 0.06 ng/mL | IL-2 production [ng/ml] Average ([1]; 0.05 μM): 0.13 ng/mL | TNF-alpha production [ng/ml] Average ([1]; 0.05 μM): 0.26 ng/mL | CD25 expression [% positive cells] Average ([1]; 0.1 μM): 50.80 % positive cells | Cell Proliferation [Cell divisions/cell] Average ([1]; 0.1 μM): 0.58 Cell divisions/cell | IFN-gamma production [ng/ml] Average ([1]; 0.1 μM): 0.10 ng/mL | IL-2 production [ng/ml] Average ([1]; 0.1 μM): 0.21 ng/mL | TNF-alpha production [ng/ml] Average ([1]; 0.1 μM): 0.42 ng/mL | CD25 expression [% positive cells] Average ([1]; 0.25 μM): 59.10 % positive cells | Cell Proliferation [Cell divisions/cell] Average ([1]; 0.25 μM): 0.84 Cell divisions/cell | IFN-gamma production [ng/ml] Average ([1]; 0.25 μM): 0.23 ng/mL | IL-2 production [ng/ml] Average ([1]; 0.25 μM): 0.56 ng/mL | TNF-alpha production [ng/ml] Average ([1]; 0.25 μM): 0.71 ng/mL | CD25 expression [% positive cells] Average ([1]; 0.5 μM): 69.50 % positive cells | Cell Proliferation [Cell divisions/cell] Average ([1]; 0.5 μM): 1.03 Cell divisions/cell | IFN-gamma production [ng/ml] Average ([1]; 0.5 μM): 0.40 ng/mL | IL-2 production [ng/ml] Average ([1]; 0.5 μM): 1.00 ng/mL | TNF-alpha production [ng/ml] Average ([1]; 0.5 μM): 1.12 ng/mL | CD25 expression [% positive cells] Average ([1]; 1 μM): 79.50 % positive cells | Cell Proliferation [Cell divisions/cell] Average ([1]; 1 μM): 1.20 Cell divisions/cell | IFN-gamma production [ng/ml] Average ([1]; 1 μM): 0.64 ng/mL | IL-2 production [ng/ml] Average ([1]; 1 μM): 2.50 ng/mL | TNF-alpha production [ng/ml] Average ([1]; 1 μM): 1.65 ng/mL | CD25 expression [% positive cells] Average ([1]; 2.5 μM): 77.71 % positive cells | Cell Proliferation [Cell divisions/cell] Average ([1]; 2.5 μM): 1.35 Cell divisions/cell | IFN-gamma production [ng/ml] Average ([1]; 2.5 μM): 1.46 ng/mL | IL-2 production [ng/ml] Average ([1]; 2.5 μM): 7.48 ng/mL | TNF-alpha production [ng/ml] Average ([1]; 2.5 μM): 4.11 ng/mL | CD25 expression [% positive cells] Average ([1]; 5 μM): 79.53 % positive cells | Cell Proliferation [Cell divisions/cell] Average ([1]; 5 μM): 1.40 Cell divisions/cell | IFN-gamma production [ng/ml] Average ([1]; 5 μM): 2.22 ng/mL | IL-2 production [ng/ml] Average ([1]; 5 μM): 11.11 ng/mL | TNF-alpha production [ng/ml] Average ([1]; 5 μM): 5.47 ng/mL | CD25 expression [% positive cells] Average ([1]; 10 μM): 79.64 % positive cells | Cell Proliferation [Cell divisions/cell] Average ([1]; 10 μM): 1.38 Cell divisions/cell | IFN-gamma production [ng/ml] Average ([1]; 10 μM): 2.81 ng/mL | IL-2 production [ng/ml] Average ([1]; 10 μM): 13.62 ng/mL | TNF-alpha production [ng/ml] Average ([1]; 10 μM): 7.19 ng/mL | CD25 expression [% positive cells] Average ([1]; 20 μM): 75.14 % positive cells | Cell Proliferation [Cell divisions/cell] Average ([1]; 20 μM): 1.33 Cell divisions/cell | IFN-gamma production [ng/ml] Average ([1]; 20 μM): 3.29 ng/mL | IL-2 production [ng/ml] Average ([1]; 20 μM): 15.11 ng/mL | TNF-alpha production [ng/ml] Average ([1]; 20 μM): 9.31 ng/mL | T cell proliferation and expression of the surface activation marker CD25 ([1]; anti-CD3 and anti-CD28): enhanced | production of key cytokines (IL-2, IFN-gamma, TNF-alpha) ([1]; anti-CD3 and anti-CD28): strongly enhanced | Granzyme [ng/ml] avg ([2]; 0.03 μM, CD8 cells & M21): 0.10 ng/mL | IFN-gamma [ng/ml] avg ([2]; 0.03 μM, CD8 cells & M21): 0.06 ng/mL | IL-2 [ng/ml] avg ([2]; 0.03 μM, CD8 cells & M21): 1.32 ng/mL | Granzyme [ng/ml] avg [2, 3]: 0.01 ng/mL | IFN-gamma [ng/ml] avg [2, 3]: Below | IL-2 [ng/ml] avg [2, 3]: Below | Granzyme [ng/ml] avg ([2]; 0.10 μM, CD8 cells & M21): 0.12 ng/mL | IFN-gamma [ng/ml] avg ([2]; 0.10 μM, CD8 cells & M21): 0.15 ng/mL | IL-2 [ng/ml] avg ([2]; 0.10 μM, CD8 cells & M21): 2.13 ng/mL | Granzyme [ng/ml] avg [2, 4]: 0.01 ng/mL | IFN-gamma [ng/ml] avg [2, 4]: Below | IL-2 [ng/ml] avg [2, 4]: Below | Granzyme [ng/ml] avg ([2]; 0.30 μM, CD8 cells & M21): 0.18 ng/mL | IFN-gamma [ng/ml] avg ([2]; 0.30 μM, CD8 cells & M21): 0.20 ng/mL | IL-2 [ng/ml] avg ([2]; 0.30 μM, CD8 cells & M21): 2.75 ng/mL | Granzyme [ng/ml] avg [2, 5]: 0.01 ng/mL | IFN-gamma [ng/ml] avg [2, 5]: Below | IL-2 [ng/ml] avg [2, 5]: Below | Granzyme [ng/ml] avg ([2]; 1 μM, CD8 cells & M21): 0.34 ng/mL | IFN-gamma [ng/ml] avg ([2]; 1 μM, CD8 cells & M21): 0.40 ng/mL | IL-2 [ng/ml] avg ([2]; 1 μM, CD8 cells & M21): 3.38 ng/mL | Granzyme [ng/ml] avg [2, 6]: 0.02 ng/mL | IFN-gamma [ng/ml] avg [2, 6]: Below | IL-2 [ng/ml] avg [2, 6]: Below | Granzyme [ng/ml] avg ([2]; 3 μM, CD8 cells & M21): 0.43 ng/mL | IFN-gamma [ng/ml] avg ([2]; 3 μM, CD8 cells & M21): 0.54 ng/mL | IL-2 [ng/ml] avg ([2]; 3 μM, CD8 cells & M21): 3.44 ng/mL | Granzyme [ng/ml] avg [2, 7]: 0.01 ng/mL | IFN-gamma [ng/ml] avg [2, 7]: Below | IL-2 [ng/ml] avg [2, 7]: Below | Granzyme [ng/ml] avg ([2]; 10 μM, CD8 cells & M21): 0.37 ng/mL | IFN-gamma [ng/ml] avg ([2]; 10 μM, CD8 cells & M21): 0.68 ng/mL | IL-2 [ng/ml] avg ([2]; 10 μM, CD8 cells & M21): 3.26 ng/mL | Granzyme [ng/ml] avg [2, 8]: 0.02 ng/mL | IFN-gamma [ng/ml] avg [2, 8]: Below | IL-2 [ng/ml] avg [2, 8]: Below | tumor-cell contact mediated release of granzyme ([2]; CD8-positive immune cells in co-culture with M21): enhanced | production of IL-2 and IFN-gamma ([2]; CD8-positive immune cells in co-culture with M21 melanoma cells): enhanced production of both cytokines specifically upon tumor cell contact | enhancement of IL-2 and IFN-gamma production ([2]; CD8-positive immune cells in the absence of tumor cells): such effect was not detected in the absence of tumor cells
